Laboratory results as given in US20160122386A1, “V1A RECEPTOR AGONISTS” (FERRING B.V., priority 2014, published 2016).
Read-outs that look alike come from different tables or passages of the source. Starred links: 1 amine or outer side, 2 acyl side, 3 side chain; linkers in the order of their positions; H or OH if unused. Positions of bridges follow the written chain, without caps; N, C: chain ends. Non-standard residues stand in square brackets, D forms with d. Residues, ends and D or L forms follow the SMILES beside them. Chains are numbered I, II in the order given. *: point of attachment. d(isoGln) = NC(=O)[C@@H](CCC(=O)[*:2])N[*:1]; X3 = O=C([C@H](CCCNCCCCN[*:3])N[*:1])[*:2]; X2 = N=C(N)N[C@@H](CCCCN[*:1])C(=O)[*:2]; isoGln = NC(=O)[C@H](CCC(=O)[*:2])N[*:1]; d(εLys) = N[C@H](CCCCN[*:1])C(=O)[*:2]; X1 = N[C@@H](CCC(=O)[*:2])C(=O)[*:1]; εLys = N[C@@H](CCCCN[*:1])C(=O)[*:2]; Glutaryl = O=C(CCCC(=O)[*:2])[*:1]; Aad = N[C@@H](CCCC(=O)O)C(=O)O; Cit = NC(=O)NCCC[C@H](N)C(=O)O; Orn = NCCC[C@H](N)C(=O)O; Dab = NCC[C@H](N)C(=O)O; PhAc = O=C(Cc1ccccc1)*

Target: T1, human V1aR (Homo sapiens, UniProt P37288)
T1 construct: expressed in transfected cells
T1 sequence (P37288 whole entry): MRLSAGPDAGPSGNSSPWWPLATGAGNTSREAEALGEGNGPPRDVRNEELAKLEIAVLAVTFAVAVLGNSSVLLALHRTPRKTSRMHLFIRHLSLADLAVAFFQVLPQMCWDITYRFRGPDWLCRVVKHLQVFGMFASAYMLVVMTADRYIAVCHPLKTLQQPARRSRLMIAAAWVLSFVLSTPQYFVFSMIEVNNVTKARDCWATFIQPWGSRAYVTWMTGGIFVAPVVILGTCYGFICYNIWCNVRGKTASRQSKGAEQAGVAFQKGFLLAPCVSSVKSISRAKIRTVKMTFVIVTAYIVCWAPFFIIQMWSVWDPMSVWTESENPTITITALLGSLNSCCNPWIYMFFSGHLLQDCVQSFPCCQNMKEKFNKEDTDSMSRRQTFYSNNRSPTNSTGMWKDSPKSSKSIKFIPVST
Assay: Agonist activity at vasopressin V1a receptors, cell-based FLIPR calcium assay
Conditions: for Emax: read-out: Efficacy Avg. (%)
Procedure, shortened: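 HEK Flp-In cells stably expressing human V1aR were loaded with Calcium 4 dye plus 2.5 mM probenecid for 1 h at 37 °C, then given half-log compound concentrations (final 0.1% DMSO) on FLIPR Tetra.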

Row | EC50 (HEK-flpin cells stably expressing hV1aR, intracellular calcium fluorescence, averaged, read-out: EC50 (Avg)) [nM] | SMILES | EC50 [nM] | Emax [%]
1 |  | CC[C@H](C)[C@@H]1NC(=O)[C@H](Cc2ccccc2)NC(=O)[C@@H](N)CSSC[C@@H](C(=O)N2CCC[C@H]2C(=O)N[C@@H](CCCNCCCCNC(=O)CC[C@H](NC(=O)[C@H](CCCNC(=N)N)NC(=O)[C@@H]2CCCN2C(=O)[C@H](CCCNC(=N)N)NC(=O)[C@H](CC(N)=O)NC(=O)[C@H](CCC(N)=O)NC(=O)[C@H](Cc2ccccc2)NC(=O)[C@@H](Cc2ccc(OC)cc2)NC(=O)Cc2ccccc2)C(N)=O)C(=O)NCC(N)=O)NC(=O)[C@H](CC(N)=O)NC(=O)[C@H](CCC(N)=O)NC1=O [Compound 10] | > 10000 | 26
2 |  | CC[C@H](C)[C@@H]1NC(=O)[C@H](Cc2ccccc2)NC(=O)[C@@H](N)CSSC[C@@H](C(=O)N2CCC[C@H]2C(=O)N[C@@H](CCNC(=O)[C@@H](N)CCC(=O)NCCCC[C@H](NC(=O)[C@H](CCCNC(=N)N)NC(=O)[C@@H]2CCCN2C(=O)[C@H](C)NC(=O)[C@H](CC(N)=O)NC(=O)[C@H](CCC(N)=O)NC(=O)[C@H](Cc2ccccc2)NC(=O)[C@@H](Cc2ccc(OC)cc2)NC(=O)Cc2ccccc2)C(N)=O)C(=O)NCC(N)=O)NC(=O)[C@H](CC(N)=O)NC(=O)[C@H](CCCC(N)=O)NC1=O [Compound 64] (I: H-CFI[Aad](NH2)NCP[Dab]G-NH2 / II: PhAc-[dY](Me)FQNAPRK-NH2; disulfide I:1-I:6; linker I:8-II:8 via X1) | 2.9 | 42
3 |  | CC[C@H](C)[C@@H]1NC(=O)[C@H](Cc2ccccc2)NC(=O)[C@@H](N)CSSC[C@@H](C(=O)N2CCC[C@H]2C(=O)N[C@@H](CCCNCCCCCNC(=O)CC[C@H](NC(=O)[C@H](CCCNC(=N)N)NC(=O)[C@@H]2CCCN2C(=O)[C@H](CCCCN)NC(=O)[C@H](CC(N)=O)NC(=O)[C@H](CCC(N)=O)NC(=O)[C@H](Cc2ccccc2)NC(=O)[C@@H](Cc2ccc(OC)cc2)NC(=O)Cc2ccccc2)C(N)=O)C(=O)NCC(N)=O)NC(=O)[C@H](CC(N)=O)NC(=O)[C@H](CCC(N)=O)NC1=O [Compound 12] | 2.3 | 39
4 |  | CC[C@H](C)[C@@H]1NC(=O)[C@H](Cc2ccccc2)NC(=O)[C@@H](N)CSSC[C@@H](C(=O)N2CCC[C@H]2C(=O)N[C@@H](CCNC(=O)[C@H](N)CCCCNC(=O)[C@H](CCCCNC(C)=O)NC(=O)CC[C@H](NC(=O)[C@H](CCCNC(=N)N)NC(=O)[C@@H]2CCCN2C(=O)[C@H](C)NC(=O)[C@H](CC(N)=O)NC(=O)[C@H](CCC(N)=O)NC(=O)[C@H](Cc2ccccc2)NC(=O)[C@@H](Cc2ccc(OC)cc2)NC(=O)Cc2ccccc2)C(N)=O)C(=O)NCC(N)=O)NC(=O)[C@H](CC(N)=O)NC(=O)[C@H](CCCC(N)=O)NC1=O [Compound 58] (I: H-CFI[Aad](NH2)NCP[Dab]G-NH2 / II: PhAc-[dY](Me)FQNAPR[isoGln]K(Ac)[d(εLys)]; disulfide I:1-I:6; amide I:8-II:C) | 2.6 | 26
5 |  | CC[C@H](C)[C@@H]1NC(=O)[C@H](Cc2ccccc2)NC(=O)[C@@H](N)CSSC[C@@H](C(=O)N2CCC[C@H]2C(=O)N[C@@H](CCCNCCCCCC(=O)NCCCC[C@H](NC(=O)[C@H](CCCNC(=N)N)NC(=O)[C@@H]2CCCN2C(=O)[C@H](C)NC(=O)[C@H](CC(N)=O)NC(=O)[C@H](CCC(N)=O)NC(=O)[C@H](Cc2ccccc2)NC(=O)[C@@H](Cc2ccc(OC)cc2)NC(=O)Cc2ccccc2)C(N)=O)C(=O)NCC(N)=O)NC(=O)[C@H](CC(N)=O)NC(=O)[C@H](CCC(N)=O)NC1=O [Compound 8] | > 10000 | 50
6 |  | CC[C@H](C)[C@@H]1NC(=O)[C@H](Cc2ccccc2)NC(=O)[C@@H](N)CSSC[C@@H](C(=O)N2CCC[C@H]2C(=O)N[C@@H](CCCNC(=O)[C@H](CCCCNC(=O)CC[C@H](NC(=O)[C@H](CCCNC(=N)N)NC(=O)[C@@H]2CCCN2C(=O)[C@H](CCCNC(=N)N)NC(=O)[C@H](CC(N)=O)NC(=O)[C@H](CCC(N)=O)NC(=O)[C@H](Cc2ccccc2)NC(=O)[C@@H](Cc2ccc(OC)cc2)NC(=O)Cc2ccccc2)C(N)=O)NC(=N)N)C(=O)NCC(N)=O)NC(=O)[C@H](CC(N)=O)NC(=O)[C@H](CCC(N)=O)NC1=O [Compound 26] (I: H-CFIQNCP[Orn]G-NH2 / II: PhAc-[dY](Me)FQNRPR[isoGln][X2]; disulfide I:1-I:6; amide I:8-II:C) | 0.93 | 32
7 |  | CC[C@H](C)[C@@H]1NC(=O)[C@H](Cc2ccccc2)NC(=O)[C@@H](N)CSSC[C@@H](C(=O)N2CCC[C@H]2C(=O)N[C@@H](CCCNCCCC(=O)NCCCC[C@H](NC(=O)[C@H](CCCNC(=N)N)NC(=O)[C@@H]2CCCN2C(=O)[C@H](CCCNC(=N)N)NC(=O)[C@H](CC(N)=O)NC(=O)[C@H](CCC(N)=O)NC(=O)[C@H](Cc2ccccc2)NC(=O)[C@@H](Cc2ccc(OC)cc2)NC(=O)Cc2ccccc2)C(N)=O)C(=O)NCC(N)=O)NC(=O)[C@H](CC(N)=O)NC(=O)[C@H](CCC(N)=O)NC1=O [Compound 7] | > 10000 | 24
8 |  | CC[C@H](C)[C@@H]1NC(=O)[C@H](Cc2ccccc2)NC(=O)[C@@H](N)CSSC[C@@H](C(=O)N2CCC[C@H]2C(=O)N[C@@H](CCNC(=O)[C@@H](N)CCCCNC(=O)CC[C@@H](NC(=O)[C@H](CCCNC(=N)N)NC(=O)[C@@H]2CCCN2C(=O)[C@H](CCCNC(N)=O)NC(=O)[C@H](CC(N)=O)NC(=O)[C@H](CCC(N)=O)NC(=O)[C@H](Cc2ccccc2)NC(=O)[C@@H](Cc2ccc(OC)cc2)NC(=O)Cc2ccccc2)C(N)=O)C(=O)NCC(N)=O)NC(=O)[C@H](CC(N)=O)NC(=O)[C@H](CCC(N)=O)NC1=O [Compound 57] (I: H-CFIQNCP[Dab]G-NH2 / II: PhAc-[dY](Me)FQN[Cit]PR[d(isoGln)][εLys]; disulfide I:1-I:6; amide I:8-II:C) | 1.4 | 63
9 |  | CC[C@H](C)[C@@H]1NC(=O)[C@H](Cc2ccccc2)NC(=O)[C@@H](N)CSSC[C@@H](C(=O)N2CCC[C@H]2C(=O)N[C@@H](CCNC(=O)[C@@H](N)CCCCNC(=O)CC[C@@H](NC(=O)[C@H](CCCNC(=N)N)NC(=O)[C@@H]2CCCN2C(=O)[C@H](C)NC(=O)[C@H](CC(N)=O)NC(=O)[C@H](CCC(N)=O)NC(=O)[C@H](Cc2ccccc2)NC(=O)[C@@H](Cc2ccc(OC)cc2)NC(=O)Cc2ccccc2)C(N)=O)C(=O)NCC(N)=O)NC(=O)[C@H](CC(N)=O)NC(=O)[C@H](CCCC(N)=O)NC1=O [Compound 53] (I: H-CFI[Aad](NH2)NCP[Dab]G-NH2 / II: PhAc-[dY](Me)FQNAPR[d(isoGln)][εLys]; disulfide I:1-I:6; amide I:8-II:C) | 1.7 | 43
10 | 1.1 | CC[C@H](C)[C@@H]1NC(=O)[C@H](Cc2ccccc2)NC(=O)[C@@H](O)CSSC[C@@H](C(=O)N2CCC[C@H]2C(=O)N[C@@H](CCNC(=O)[C@@H](N)CCCCNC(=O)CC[C@H](NC(=O)[C@H](CCCNC(=N)N)NC(=O)[C@@H]2CCCN2C(=O)[C@H](CCCCN)NC(=O)[C@H](CC(N)=O)NC(=O)[C@H](CCC(N)=O)NC(=O)[C@H](Cc2ccccc2)NC(=O)[C@@H](Cc2ccc(OC)cc2)NC(=O)CC(C)C)C(N)=O)C(=O)NCC(N)=O)NC(=O)[C@H](CC(N)=O)NC(=O)[C@H](CCC(N)=O)NC1=O [Compound 33] |  | 50
11 |  | CC[C@H](C)[C@@H]1NC(=O)[C@H](Cc2ccccc2)NC(=O)[C@@H](N)CSSC[C@@H](C(=O)N2CCC[C@H]2C(=O)N[C@@H](CCCNCCCCCNC(=O)CC[C@H](NC(=O)[C@H](CCCNC(=N)N)NC(=O)[C@@H]2CCCN2C(=O)[C@H](C)NC(=O)[C@H](CC(N)=O)NC(=O)[C@H](CCC(N)=O)NC(=O)[C@H](Cc2ccccc2)NC(=O)[C@@H](Cc2ccc(OC)cc2)NC(=O)Cc2ccccc2)C(N)=O)C(=O)NCC(N)=O)NC(=O)[C@H](CC(N)=O)NC(=O)[C@H](CCC(N)=O)NC1=O [Compound 2] | 0.69 | 52
12 |  | CC[C@H](C)[C@@H]1NC(=O)[C@H](Cc2ccccc2)NC(=O)[C@@H](N)CSSC[C@@H](C(=O)N2CCC[C@H]2C(=O)N[C@@H](CCCNCCCCNC(=O)CCCC(=O)NCCCC[C@H](NC(=O)[C@H](CCCNC(=N)N)NC(=O)[C@@H]2CCCN2C(=O)[C@H](CCCNC(=N)N)NC(=O)[C@H](CC(N)=O)NC(=O)[C@H](CCC(N)=O)NC(=O)[C@H](Cc2ccccc2)NC(=O)[C@@H](Cc2ccc(OC)cc2)NC(=O)Cc2ccccc2)C(N)=O)C(=O)NCC(N)=O)NC(=O)[C@H](CC(N)=O)NC(=O)[C@H](CCC(N)=O)NC1=O [Compound 3] (I: H-CFIQNCP[X3]G-NH2 / II: PhAc-[dY](Me)FQNRPRK-NH2; disulfide I:1-I:6; linker I:8-II:8 via Glutaryl) | 2.9 | 39
13 |  | CC[C@H](C)[C@@H]1NC(=O)[C@H](Cc2ccccc2)NC(=O)[C@@H](N)CSSC[C@@H](C(=O)N2CCC[C@H]2C(=O)N[C@@H](CCNC(=O)[C@@H](N)CCC(=O)NCCCC[C@H](NC(=O)[C@H](CCCNC(=N)N)NC(=O)[C@@H]2CCCN2C(=O)[C@H](C)NC(=O)[C@H](CC(N)=O)NC(=O)[C@H](CCC(N)=O)NC(=O)[C@H](Cc2ccccc2)NC(=O)[C@@H](Cc2ccc(OC)cc2)NC(=O)Cc2ccccc2)C(N)=O)C(=O)NCC(N)=O)NC(=O)[C@H](CC(N)=O)NC(=O)[C@H](CCC(N)=O)NC1=O [Compound 38] (I: H-CFIQNCP[Dab]G-NH2 / II: PhAc-[dY](Me)FQNAPRK-NH2; disulfide I:1-I:6; linker I:8-II:8 via X1) | 1.4 | 46
14 |  | CC[C@H](C)[C@@H]1NC(=O)[C@H](Cc2ccccc2)NC(=O)[C@@H](N)CSSC[C@@H](C(=O)N2CCC[C@H]2C(=O)N[C@@H](CCNC(=O)[C@@H](N)CCCCNC(=O)CC[C@H](NC(=O)[C@H](CCCNC(=N)N)NC(=O)[C@@H]2CCCN2C(=O)[C@H](CCCCN)NC(=O)[C@H](CC(N)=O)NC(=O)[C@H](CCC(N)=O)NC(=O)[C@H](Cc2ccccc2)NC(=O)[C@@H](Cc2ccc(OC)cc2)NC(=O)Cc2ccccc2)C(N)=O)C(=O)NCC(N)=O)NC(=O)[C@H](CC(N)=O)NC(=O)[C@H](CCC(N)=O)NC1=O [Compound 35] (I: H-CFIQNCP[Dab]G-NH2 / II: PhAc-[dY](Me)FQNKPR[isoGln][εLys]; disulfide I:1-I:6; amide I:8-II:C) | 1.2 | 43
